Patent publication US20250325677A1, “STAT6 DEGRADERS” (Gilead Sciences, Inc., priority 2024, published 2025)

Tests used:
eotaxin-3 release = experiment: Human whole blood eotaxin-3 assay (IL-4 stimulated); type: cell-based; conditions: human whole blood, IL-4 0.4 nM, 48 hours; geometric mean; given for compounds with >80% Emax; read-out: Eotaxin-3 EC50
Protocol: Human Whole Blood Eotaxin-3 Assay
This was a human whole blood assay using recombinant human Interleukin 4 to stimulate the blood and measuring the ability of the test compounds to inhibit eotaxin-3 release. Compounds or media were added to the wells and incubated together with human whole blood for 120 minutes at 37° C. Subsequently, recombinant IL-4 was added at a final concentration of 0.4 nM. The plates were incubated for 48 hours.
Test compounds which inhibited eotaxin-3 release upon stimulation with human IL-4 (E. coli) interfered with the signaling in human whole blood are expected to have activity in human beings. […] The EC50 value indicates at which concentration test compounds were active and in inhibiting the eotaxin-3 release. As eotaxin-3 release is down-stream of STAT6 signaling both STAT6 inhibitors and STAT6 degraders are active in this assay.
The data from the human whole blood eotaxin-3 assay is shown below for Examples 3e27, 3e50, 3e17, and 3e51 (where the effect in % is plotted against the test concentration in M on a log-scale).

STAT6 = STAT6 (Homo sapiens (Human), UniProt P42226); experiment: STAT6 degrader assay (HiBiT, HeLa LgBiT clone 4.14); type: cell-based; conditions: HeLa LgBiT clone 4.14, 4-24 h; geometric mean; given for compounds with >80% Emax; read-out: STAT6 degradation DC50
Procedure, shortened: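 HeLa LgBiT clone 4.14 cells with HiBiT knocked into endogenous STAT6 were treated with compound for 4-24 h at 37° C. Luminescence after Nano-GLO substrate (0.5 h) measured remaining STAT6; 50 μM terfenadine wells defined 100% degradation, and DC50 (nM) was derived.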

STAT6, sequence (P42226 whole entry): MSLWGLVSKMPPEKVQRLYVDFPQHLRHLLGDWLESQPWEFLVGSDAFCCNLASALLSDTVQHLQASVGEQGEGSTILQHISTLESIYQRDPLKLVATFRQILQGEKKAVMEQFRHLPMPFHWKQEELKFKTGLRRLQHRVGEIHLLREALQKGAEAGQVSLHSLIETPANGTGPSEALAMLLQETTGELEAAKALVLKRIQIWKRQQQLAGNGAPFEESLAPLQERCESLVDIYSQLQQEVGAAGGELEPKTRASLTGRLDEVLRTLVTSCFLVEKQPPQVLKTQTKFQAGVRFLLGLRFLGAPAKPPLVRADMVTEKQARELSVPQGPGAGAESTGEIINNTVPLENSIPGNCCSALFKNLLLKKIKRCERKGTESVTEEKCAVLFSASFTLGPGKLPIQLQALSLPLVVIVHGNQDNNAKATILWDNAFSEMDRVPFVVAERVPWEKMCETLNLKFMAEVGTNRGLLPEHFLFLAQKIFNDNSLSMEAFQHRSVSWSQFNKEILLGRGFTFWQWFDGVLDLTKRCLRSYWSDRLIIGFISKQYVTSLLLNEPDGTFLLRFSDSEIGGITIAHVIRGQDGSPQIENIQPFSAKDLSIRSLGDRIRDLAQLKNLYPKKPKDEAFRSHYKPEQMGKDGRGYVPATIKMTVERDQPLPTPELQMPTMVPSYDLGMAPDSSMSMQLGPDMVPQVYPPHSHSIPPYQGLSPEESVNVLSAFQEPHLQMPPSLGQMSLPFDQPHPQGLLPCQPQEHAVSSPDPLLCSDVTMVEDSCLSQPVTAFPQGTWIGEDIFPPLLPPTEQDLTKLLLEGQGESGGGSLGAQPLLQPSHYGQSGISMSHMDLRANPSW

| SMILES | EC50 (eotaxin-3 release) | DC50 (STAT6) |
| --- | --- | --- |
| CNc1ccc(-c2ccnc3c2cc([C@H](C)N2CC=C(c4c(C)cc(C(=O)N5CCC(CN6CCN(Cc7ccc8c(c7)C(C)(C)C(=O)N8C7CCC(=O)NC7=O)C[C@@H]6C)CC5)cc4F)CC2)n3C)cn1 (stereo partly drawn) [Example 3h18, 3-(5-(((S)-4-((1-(3-fluoro-5-methyl-4-(1-((S)-1-(1-methyl-4-(6-(methylamino)pyridin-3-yl)-1H-pyrrolo[2,3-b]pyridin-2-yl)ethyl)-1,2,3,6-tetrahydropyridin-4-yl)benzoyl)piperidin-4-yl)methyl)-3-methylpiperazin-1-yl)methyl)-3,3-dimethyl-2-oxoindolin-1-yl)piperidine-2,6-dione] | 12.3 nM | 6.3 nM |
| C[C@H]1CN(Cc2ccc3c(c2)n(C)c(=O)n3C2CCC(=O)NC2=O)CCN1CC1CCN(C(=O)c2ccc(C3CCN(Cc4cc5c(-c6ccc(N)nc6)ccnc5n4C)CC3)cc2)CC1 (stereo partly drawn) [Example 3e9, 3-(5-(((S)-4-((1-(4-(1-((4-(6-aminopyridin-3-yl)-1-methyl-1H-pyrrolo[2,3-b]pyridin-2-yl)methyl)piperidin-4-yl)benzoyl)piperidin-4-yl)methyl)-3-methylpiperazin-1-yl)methyl)-3-methyl-2-oxo-2,3-dihydro-1H-benzo[d]imidazol-1-yl)piperidine-2,6-dione] | 31 nM | 0.75 nM |
| CNc1ccc(-c2ccnc3c2cc([C@H](C)N2CC=C(c4c(C)cc(C(=O)N5CCC(CN6CCN(Cc7ccc8c(c7)C7(CCC7)C(=O)N8C7CCC(=O)NC7=O)C[C@@H]6C)CC5)cc4F)CC2)n3C)cn1 (stereo partly drawn) [Example 3h47, 3-(5′-(((S)-4-((1-(3-fluoro-5-methyl-4-(1-((S)-1-(1-methyl-4-(6-(methylamino)pyridin-3-yl)-1H-pyrrolo[2,3-b]pyridin-2-yl)ethyl)-1,2,3,6-tetrahydropyridin-4-yl)benzoyl)piperidin-4-yl)methyl)-3-methylpiperazin-1-yl)methyl)-2′-oxospiro[cyclobutane-1,3′-indolin]-1′-yl)piperidine-2,6-dione] | 8.8 nM | 7 nM |
| C[C@H]1CN(Cc2ccc3c(c2)n(C)c(=O)n3[C@@H]2CCC(=O)NC2=O)CCN1CC1CCN(C(=O)c2ccc(C3CCN(Cc4cc5c(-c6ccc(N)nc6)ccnc5n4C)CC3)cc2)CC1 (single isomer, unassigned) [Example 3e20] | 29.8 nM | 1.1 nM |
| C[C@@H](c1cc2c(-c3ccc(N)nc3)ccnc2n1C)N1CCC(c2ccc(C(=O)N3CCC(CN4CCN(Cc5ccc6c(c5)n(C)c(=O)n6C5CCC(=O)NC5=O)CC4C(F)(F)F)CC3)cc2)CC1 (stereo partly drawn) [Example 3e31, 3-(5-((4-((1-(4-(1-((S)-1-(4-(6-aminopyridin-3-yl)-1-methyl-1H-pyrrolo[2,3-b]pyridin-2-yl)ethyl)piperidin-4-yl)benzoyl)piperidin-4-yl)methyl)-3-(trifluoromethyl)piperazin-1-yl)methyl)-3-methyl-2-oxo-2,3-dihydro-1H-benzo[d]imidazol-1-yl)piperidine-2,6-dione] | 9.3 nM | 2 nM |
| C[C@@H](c1cc2c(-c3ccc(N)nc3)ccnc2n1C)N1CCC(c2ccc(C(=O)N3CCC(CN4CCN(Cc5cc6c(cc5Cl)n(C5CCC(=O)NC5=O)c(=O)n6C)CC4)CC3)cc2)CC1 (stereo partly drawn) [Example 3e30, 3-(5-((4-((1-(4-(1-((S)-1-(4-(6-aminopyridin-3-yl)-1-methyl-1H-pyrrolo[2,3-b]pyridin-2-yl)ethyl)piperidin-4-yl)benzoyl)piperidin-4-yl)methyl)piperazin-1-yl)methyl)-6-chloro-3-methyl-2-oxo-2,3-dihydro-1H-benzo[d]imidazol-1-yl)piperidine-2,6-dione] | 36.9 nM | 7.2 nM |

Stronger by EC50 (eotaxin-3 release), values ahead:

| EC50 (eotaxin-3 release) | DC50 (STAT6) | SMILES |
| --- | --- | --- |
| 3.4 nM | 1.8 nM | C[C@@H](c1cc2c(-c3ccc(N)nc3)ccnc2n1C)N1CCC(c2ccc(C(=O)N3CCC(CN4CCN(Cc5ccc6c(c5)n(C)c(=O)n6C5CCC(=O)NC5=O)C[C@@H]4C(F)(F)F)CC3)cc2)CC1 (stereo partly drawn) [Example 3e42, 3-(5-(((R)-4-((1-(4-(1-((S)-1-(4-(6-aminopyridin-3-yl)-1-methyl-1H-pyrrolo[2,3-b]pyridin-2-yl)-ethyl)piperidin-4-yl)benzoyl)piperidin-4-yl)methyl)-3-(trifluoromethyl)piperazin-1-yl)methyl)-3-methyl-2-oxo-2,3-dihydro-1H-benzo[d]imidazol-1-yl)piperidine-2,6-dione] |
| 4.9 nM | 2.2 nM | C[C@H]1CN(Cc2ccc3c(c2)n(C)c(=O)n3C2CCC(=O)NC2=O)CCN1CC1CCN(C(=O)c2ccc(C3CCN([C@@H](C)c4cc5c(-c6cnc(N)c(F)c6)ccnc5n4C)CC3)cc2)CC1 (stereo partly drawn) [Example 3e47, 3-(5-(((S)-4-((1-(4-(1-((S)-1-(4-(6-amino-5-fluoropyridin-3-yl)-1-methyl-1H-pyrrolo[2,3-b]pyridin-2-yl)ethyl)piperidin-4-yl)benzoyl)piperidin-4-yl)methyl)-3-methylpiperazin-1-yl)methyl)-3-methyl-2-oxo-2,3-dihydro-1H-benzo[d]imidazol-1-yl)piperidine-2,6-dione] |
| 0.8 nM | 0.2 nM | COc1nc(N)ccc1-c1ccnc2c1cc([C@H](C)N1CCC(c3ccc(C(=O)N4CCC(CN5CCN(Cc6ccc7c(c6)n(C)c(=O)n7C6CCC(=O)NC6=O)C[C@@H]5C)CC4)cc3)CC1)n2C (stereo partly drawn) [Example 3e41, 3-(5-(((S)-4-((1-(4-(1-((S)-1-(4-(6-amino-2-methoxypyridin-3-yl)-1-methyl-1H-pyrrolo[2,3-b]pyridin-2-yl)ethyl)piperidin-4-yl)benzoyl)piperidin-4-yl)methyl)-3-methylpiperazin-1-yl)methyl)-3-methyl-2-oxo-2,3-dihydro-1H-benzo[d]imidazol-1-yl)piperidine-2,6-dione] |
| 8.5 nM | 5.5 nM | CNc1ccc(-c2ccnc3c2cc([C@H](C)N2CC=C(c4c(C)cc(C(=O)N5CCC(CN6CCN(Cc7cc8c(cc7F)N(C7CCC(=O)NC7=O)C(=O)C87CC7)CC6)CC5)cc4F)CC2)n3C)cn1 (stereo partly drawn) [Example 3h34, 3-(6′-fluoro-5′-((4-((1-(3-fluoro-5-methyl-4-(1-((S)-1-(1-methyl-4-(6-(methylamino)pyridin-3-yl)-1H-pyrrolo[2,3-b]pyridin-2-yl)ethyl)-1,2,3,6-tetrahydropyridin-4-yl)benzoyl)piperidin-4-yl)methyl)piperazin-1-yl)methyl)-2′-oxospiro[cyclopropane-1,3′-indolin]-1′-yl)piperidine-2,6-dione] |
| 7.1 nM | 1.7 nM | CNc1ccc(-c2ccnc3c2cc(CN2CCC(c4c(F)cc(C(=O)N5CCC(CN6CCN(Cc7ccc8c(c7)C7(CC7)C(=O)N8C7CCC(=O)NC7=O)C[C@@H]6C)CC5)cc4F)CC2)n3C)cn1 (stereo partly drawn) [Example 3h38, 3-(5′-(((S)-4-((1-(3,5-difluoro-4-(1-((1-methyl-4-(6-(methylamino)pyridin-3-yl)-1H-pyrrolo [2,3-b]pyridin-2-yl)methyl)piperidin-4-yl)benzoyl)piperidin-4-yl)methyl)-3-methylpiperazin-1-yl)methyl)-2′-oxospiro[cyclopropane-1,3′-indolin]-1′-yl)piperidine-2,6-dione] |
| 3.1 nM | 0.8 nM | C[C@H]1CN(Cc2ccc3c(c2)n(C2CC2)c(=O)n3[C@@H]2CCC(=O)NC2=O)CCN1CC1CCN(C(=O)c2ccc(C3CCN([C@@H](C)c4cc5c(-c6ccc(N)nc6)ccnc5n4C)CC3)cc2)CC1 (single isomer, unassigned) [Example 3e51] |
